Test results: paper PMC6384922, “Potent in Vitro α-Glucosidase Inhibition of Secondary Metabolites Derived from Dryopteris cycadina” (Molecules, 2019)
Several values for one entry are separate records, joined by “and”; a condition that tells them apart may be missing. Identical values can stand only once. Like-named read-outs stand apart in the source and are kept apart here.

Legend:
[1] = target: T1, α-glucosidase (EC3.2.1.20) (Saccharomyces cerevisiae, UniProt P07265); design: method as in PMID 18341288; settings: cited from earlier work
T1 construct: purchased Sigma Aldrich
T1 sequence (P07265 whole entry): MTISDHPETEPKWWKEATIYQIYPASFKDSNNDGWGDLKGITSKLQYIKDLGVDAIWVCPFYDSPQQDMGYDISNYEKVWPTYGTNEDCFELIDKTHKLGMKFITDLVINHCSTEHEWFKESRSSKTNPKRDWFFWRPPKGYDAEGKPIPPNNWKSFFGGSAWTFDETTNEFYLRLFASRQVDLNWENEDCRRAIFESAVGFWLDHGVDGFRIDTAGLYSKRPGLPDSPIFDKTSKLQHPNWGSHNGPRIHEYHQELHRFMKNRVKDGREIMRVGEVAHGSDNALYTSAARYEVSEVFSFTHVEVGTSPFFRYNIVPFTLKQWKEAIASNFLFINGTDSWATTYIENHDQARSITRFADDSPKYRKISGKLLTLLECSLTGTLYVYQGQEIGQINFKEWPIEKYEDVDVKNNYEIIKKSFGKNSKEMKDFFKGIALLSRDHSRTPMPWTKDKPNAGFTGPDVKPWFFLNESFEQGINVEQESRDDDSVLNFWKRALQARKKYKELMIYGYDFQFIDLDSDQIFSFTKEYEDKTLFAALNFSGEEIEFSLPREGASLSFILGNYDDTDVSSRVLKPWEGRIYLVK

[2] = target: T1, α-glucosidase (EC3.2.1.20); assay: biochemical; settings: for IC50: α-glucosidase, mean ± SEM of three independent readings; for inhibition at 500 µM: read-out: maximum α-glucosidase inhibitory activity (% inhibition)
Protocol: The α-glucosidase (Saccharomyces cerevisiae) inhibitory assay was carried out with slight modifications according to the method described in [21, 26, 27]. For the evaluation of α-glucosidase inhibitory activity, 10 µl of freshly prepared phosphate buffer (pH 6.8) were plated in triplicate for a micro-well plate with the help of a micropipette. Then, 30 µL of α-glucosidase enzyme with a concentration of 0.017 units/mL of 70% ethanol and 10 µL of test compound solution were added to the same well plate. The plates were then incubated for 15 min at 37 °C and an initial reading was taken at 405 nm using the ELISA micro plate reader. Furthermore, 100 µl of 0.7mM PNPG substrate was added to each well of the plate and again incubated at 37 °C for 30 min, forming a yellow color. The final reading was taken again at λ max 405 nm using the ELISA plate reader. […] Each reading was taken in triplicate. The percent inhibition was calculated using the following formula, % inhibition = [(A negative control − A test sample)/A negative control] × 100, where A is absorbance.
The half-maximal inhibitory concentration values were determined using the Graphpad Prism version 7.0 software (San Diego, CA, USA. All values are represented as mean ± SEM.

SMILES | α-glucosidase inhibitory activity in previous studies [1] | IC50 ([2]; IC50 ± SEM) | inhibition at 500 µM [2] [%] | IC50 ([2]; read-out: IC50 ± SEM) [µM]
CC[C@H](CC[C@@H](C)[C@H]1CC[C@H]2[C@@H]3CC=C4C[C@@H](O)CC[C@]4(C)[C@H]3CC[C@]12C)C(C)C [Compound 1, β-Sitosterol] | inactive | 143 ± 0.47 µM | 92.9 | 
CCC(CCC(C)C1CCC2C3CC=C4CC(OC5OC(CO)C(O)C(O)C5O)CCC4(C)C3CCC12C)C(C)C [Compound 2, β-Sitosterol3-O-β-D-glucopyranoside] |  |  | 92 | 314 ± 4.58
Cc1ccc(C2Oc3cc(O)cc(O)c3C(=O)C2O)cc1 (stereo not shown) [Compound 3, 3,5,7-trihydroxy-2-(p-tolyl) chorman-4-one] |  | 136 µM and 133 µM | 94 | 
